{"source": "patent US20230143345A1", "about": "“PHARMACEUTICAL COMPOSITION FOR PREVENTION OR TREATMENT OF DISEASES CAUSED BY SARS-COV-2” (DONG WHA PHARM. CO., LTD., priority 2020, published 2023)", "key": {"in vitro": {"experiment": "in vitro", "conditions": "African green monkey"}, "SARS-CoV-2 [1]": {"system": "SARS-CoV-2", "experiment": "microbe, parasite or virus in culture", "type": "cell-based"}, "SARS-CoV-2 [2]": {"system": "SARS-CoV-2", "experiment": "microbe, parasite or virus in culture", "type": "cell-based", "conditions": "Severe acute respiratory syndrome coronavirus 2, Vero, read-out: SARS-CoV-2 virus 50% inhibitory ability (IC50 value)"}, "Vero cell lines": {"system": "Vero cell lines", "experiment": "Cell viability of Vero cells in the SARS-CoV-2 inhibition experiment (Example 2)"}}, "note": "Read-outs that look alike come from different tables or passages of the source."}
{"smiles": "COc1cc2cc3c(c(-c4cc5c(cc4O)OCO5)c2cc1OC)C(=O)OC3", "note": "[6′ hydroxyl justicidin-B, 9-(6-hydroxy-benzo[1,3]dioxol-5-yl)-6,7-dimethoxy-3H-naphtho[2,3-c]furan-1-one]", "values": [{"measurement": "CC50", "setting": "in vitro", "value": 314, "unit": "µM"}, {"measurement": "IC50", "setting": "SARS-CoV-2 [1]; Severe acute respiratory syndrome coronavirus 2, Vero, 24 h, read-out: SARS-CoV-2 virus 50% inhibitory ability (IC50 value)", "value": 1.06, "unit": "µM"}, {"measurement": "inhibition at 0.1 µM", "setting": "SARS-CoV-2 [1]; Severe acute respiratory syndrome coronavirus 2, concentration 0.10 uM, Vero cells, 24 h, read-out: SARS-CoV-2 virus inhibitory ability (%, average ± standard deviation)", "value": "1.45 ± 1.16", "unit": "%"}, {"measurement": "inhibition at 0.2 µM", "setting": "SARS-CoV-2 [1]; Severe acute respiratory syndrome coronavirus 2, concentration 0.20 uM, Vero cells, 24 h, read-out: SARS-CoV-2 virus inhibitory ability (%, average ± standard deviation)", "value": "-1.71 ± 4.34", "unit": "%"}, {"measurement": "inhibition at 0.39 µM", "setting": "SARS-CoV-2 [1]; Severe acute respiratory syndrome coronavirus 2, concentration 0.39 uM, Vero cells, 24 h, read-out: SARS-CoV-2 virus inhibitory ability (%, average ± standard deviation)", "value": "3.39 ± 3.95", "unit": "%"}, {"measurement": "inhibition at […]", "setting": "SARS-CoV-2 [1]; Severe acute respiratory syndrome coronavirus 2, concentration 0.78 uM, Vero cells, 24 h, read-out: SARS-CoV-2 virus inhibitory ability (%, average ± standard deviation)", "value": "35.6 ± 0.69", "unit": "%"}, {"measurement": "inhibition at 1.56 µM", "setting": "SARS-CoV-2 [1]; Severe acute respiratory syndrome coronavirus 2, concentration 1.56 uM, Vero cells, 24 h, read-out: SARS-CoV-2 virus inhibitory ability (%, average ± standard deviation)", "value": "68.6 ± 3.12", "unit": "%"}, {"measurement": "inhibition at 3.13 µM", "setting": "SARS-CoV-2 [1]; Severe acute respiratory syndrome coronavirus 2, concentration 3.13 uM, Vero cells, 24 h, read-out: SARS-CoV-2 virus inhibitory ability (%, average ± standard deviation)", "value": "95.86 ± 0.86", "unit": "%"}, {"measurement": "inhibition at 6.25 µM", "setting": "SARS-CoV-2 [1]; Severe acute respiratory syndrome coronavirus 2, concentration 6.25 uM, Vero cells, 24 h, read-out: SARS-CoV-2 virus inhibitory ability (%, average ± standard deviation)", "value": "99.74 ± 0.24", "unit": "%"}, {"measurement": "inhibition at 12.5 µM", "setting": "SARS-CoV-2 [1]; Severe acute respiratory syndrome coronavirus 2, concentration 12.5 uM, Vero cells, 24 h, read-out: SARS-CoV-2 virus inhibitory ability (%, average ± standard deviation)", "value": "98.9 ± 1.49", "unit": "%"}, {"measurement": "inhibition at 25 µM", "setting": "SARS-CoV-2 [1]; Severe acute respiratory syndrome coronavirus 2, concentration 25 uM, Vero cells, 24 h, read-out: SARS-CoV-2 virus inhibitory ability (%, average ± standard deviation)", "value": "99.79 ± 0.6", "unit": "%"}, {"measurement": "inhibition at 50 µM", "setting": "SARS-CoV-2 [1]; Severe acute respiratory syndrome coronavirus 2, concentration 50 uM, Vero cells, 24 h, read-out: SARS-CoV-2 virus inhibitory ability (%, average ± standard deviation)", "value": "97.8 ± 2.47", "unit": "%"}, {"measurement": "SARS-CoV-2 inhibitory ability (in words)", "setting": "SARS-CoV-2 [1]; Vero cells, comparison at IC50 values with Remdesivir, Lopinavir and Chloroquine", "value": "remarkably more excellent"}, {"measurement": "IC50", "setting": "SARS-CoV-2 [2]", "value": 0.05, "unit": "µM"}, {"measurement": "Cell viability (%, average ± standard deviation)", "setting": "Vero cell lines; concentration 0.10 uM", "value": "100.66 ± 0.73", "unit": "%"}, {"measurement": "Cell viability (%, average ± standard deviation)", "setting": "Vero cell lines; concentration 0.20 uM", "value": "104.63 ± 0.44", "unit": "%"}, {"measurement": "Cell viability (%, average ± standard deviation)", "setting": "Vero cell lines; concentration 0.39 uM", "value": "105.17 ± 0.85", "unit": "%"}, {"measurement": "Cell viability (%, average ± standard deviation)", "setting": "Vero cell lines; concentration 1.56 uM", "value": "107.86 ± 0.60", "unit": "%"}, {"measurement": "Cell viability (%, average ± standard deviation)", "setting": "Vero cell lines; concentration 3.13 uM", "value": "105.46 ± 0.38", "unit": "%"}, {"measurement": "Cell viability (%, average ± standard deviation)", "setting": "Vero cell lines; concentration 6.25 uM", "value": "103.44 ± 1.31", "unit": "%"}, {"measurement": "Cell viability (%, average ± standard deviation)", "setting": "Vero cell lines; concentration 12.5 uM", "value": "101.11 ± 0.36", "unit": "%"}, {"measurement": "Cell viability (%, average ± standard deviation)", "setting": "Vero cell lines; concentration 25 uM", "value": "97.80 ± 1.29", "unit": "%"}, {"measurement": "Cell viability (%, average ± standard deviation)", "setting": "Vero cell lines; concentration 50 uM", "value": "93.38 ± 0.72", "unit": "%"}]}
